From PubChem BioAssay (NCI) come the findings set out here.

Test systems include 786-0 renal; A498 renal; A549 NSCLC; COLO 205 colon; HCT-15 colon; HOP-92 NSCLC; HS 578T breast; IGROV1 ovarian; MALME-3M melanoma; MCF7 breast; MDA-MB-231 breast; OVCAR-8 ovarian; RXF 393 renal; SF-268 CNS; SN12C renal; SNB-19 CNS; SNB-75 CNS; UACC-257 melanoma; OVCAR-5 ovarian; SK-MEL-28 melanoma.
Experiment in all cases: NCI-60 cell line screen, 48 h

SMILES strings stand for the structures.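 Cultured in 96-well plates, cells were exposed to test compound for 48 hours across five concentrations. TGI marks complete inhibition of growth.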 Where only a bound is given, the exact number is not on record here.

As to `COc1cc2ccc1OCc1cccc(n1)COc1ccc(cc1OC)C=Nc1ccc(cc1)-c1ccc(cc1)N=C2`, the TGI in the experiment on 786-0 renal, with A498 renal, in the experiment with A549 NSCLC, in the experiment with COLO 205 colon, with HCT-15 colon and in the experiment on HOP-92 NSCLC was over 100 µM throughout. Also, the TGI in the experiment with HS 578T breast, in the experiment on IGROV1 ovarian, in the experiment with MALME-3M melanoma, in the experiment with MCF7 breast, with MDA-MB-231 breast and in the experiment with OVCAR-8 ovarian was over 100 µM each time. In addition, the TGI in the experiment with RXF 393 renal, with SF-268 CNS, in the experiment on SN12C renal, with SNB-19 CNS, in the experiment with SNB-75 CNS and in the experiment on UACC-257 melanoma was over 100 µM in each case.
Turning to `O=C1CCCCCC1CC(Sc1ccccc1)Sc1ccccc1` (stereo unspecified), the TGI in the experiment on 786-0 renal, with A498 renal, in the experiment on A549 NSCLC, in the experiment with COLO 205 colon, in the experiment on HCT-15 colon and with HOP-92 NSCLC was over 100 µM each time. The TGI in the experiment with HS 578T breast, in the experiment on IGROV1 ovarian, in the experiment with MALME-3M melanoma, with MCF7 breast, in the experiment with MDA-MB-231 breast and in the experiment on OVCAR-5 ovarian was over 100 µM each time. Further, the TGI in the experiment with OVCAR-8 ovarian, with RXF 393 renal, in the experiment on SF-268 CNS, in the experiment with SK-MEL-28 melanoma, with SNB-19 CNS and in the experiment with SNB-75 CNS was over 100 µM in each case. In the experiment on UACC-257 melanoma, the TGI was over 100 µM.
With `CNC(=O)CNC(=O)C(Cc1ccc(NC(=O)CCCCC(C)=O)cc1)NC(=O)C(CCC(=O)OCc1ccccc1)NC(=O)OC(C)(C)C` (stereo unspecified), the TGI in the experiment on 786-0 renal, in the experiment on A498 renal, in the experiment with A549 NSCLC, in the experiment on COLO 205 colon, with HCT-15 colon and with HOP-92 NSCLC was over 100 µM in each case. In addition, the TGI with HS 578T breast, with IGROV1 ovarian, in the experiment with MALME-3M melanoma, in the experiment with MCF7 breast, in the experiment with MDA-MB-231 breast and with OVCAR-5 ovarian was over 100 µM throughout. Also, the TGI in the experiment on OVCAR-8 ovarian, in the experiment with RXF 393 renal, in the experiment with SF-268 CNS, in the experiment with SK-MEL-28 melanoma, in the experiment on SN12C renal and with SNB-19 CNS was over 100 µM in each case. In the experiment with SNB-75 CNS, the TGI is over 100 µM.
For the compound `COc1ccc(N=Nc2ccc3oc(=O)c(C(=O)Nc4ccc(Cl)cc4)cc3c2)cc1`, the TGI in the experiment on 786-0 renal, in the experiment on A498 renal, in the experiment on COLO 205 colon, in the experiment on HCT-15 colon, in the experiment with HOP-92 NSCLC and in the experiment with HS 578T breast was over 10 µM throughout. Moreover, the TGI in the experiment on IGROV1 ovarian, in the experiment on MALME-3M melanoma, in the experiment with MCF7 breast, in the experiment on MDA-MB-231 breast, in the experiment on OVCAR-5 ovarian and in the experiment with OVCAR-8 ovarian was over 10 µM throughout. Besides, the TGI with RXF 393 renal, in the experiment with SF-268 CNS, in the experiment on SK-MEL-28 melanoma, in the experiment with SN12C renal, in the experiment on SNB-75 CNS and in the experiment with UACC-257 melanoma was over 10 µM in each case.
Take `CC(=O)Oc1cc(C)c(OC(C)=O)c2c1[C@H]1CC[C@]3(C)[C@@H](OC(C)=O)CC[C@H]3[C@@H]1CC2`: the TGI came to 43.1 µM in the experiment on 786-0 renal; 32.8 µM in the experiment with A498 renal; 34.4 µM with A549 NSCLC; 31.3 µM in the experiment with HCT-15 colon; 23.7 µM in the experiment on HOP-92 NSCLC; 57 µM in the experiment with HS 578T breast. Besides, the TGI with IGROV1 ovarian was 32.9 µM; in the experiment on MALME-3M melanoma, 36 µM; in the experiment with MCF7 breast, 36.1 µM; with MDA-MB-231 breast, 32.7 µM; with OVCAR-5 ovarian, 36 µM; with OVCAR-8 ovarian, 44.7 µM. In addition, the TGI in the experiment with RXF 393 renal worked out at 33.9 µM; in the experiment with SF-268 CNS, 47.6 µM; in the experiment with SK-MEL-28 melanoma, 29.9 µM; in the experiment on SN12C renal, 33.2 µM; in the experiment with SNB-19 CNS, 32.2 µM; with SNB-75 CNS it was 52.1 µM. Moreover, the TGI with UACC-257 melanoma amounted to 30 µM.
Regarding `CC1(C)CCCOc2cccc(c2)OCCCC(C)(C)C1=O`, the TGI with 786-0 renal is over 100 µM; in the experiment with A498 renal it was over 100 µM; in the experiment on A549 NSCLC it was over 100 µM; with COLO 205 colon, over 100 µM; in the experiment with HCT-15 colon it was over 100 µM; in the experiment on HOP-92 NSCLC, 99.1 µM. Further, the TGI is over 100 µM with HS 578T breast; over 100 µM with IGROV1 ovarian; 70.3 µM with MALME-3M melanoma; over 100 µM in the experiment with MCF7 breast; over 100 µM in the experiment with MDA-MB-231 breast; over 100 µM in the experiment with OVCAR-5 ovarian. In addition, the TGI was 48.5 µM in the experiment with RXF 393 renal; over 100 µM with SF-268 CNS; over 100 µM in the experiment on SK-MEL-28 melanoma; over 100 µM in the experiment on SN12C renal; over 100 µM in the experiment on SNB-19 CNS; over 100 µM in the experiment on SNB-75 CNS.
`CC(=O)C(=[N+]=[N-])C(=O)OCCOC(=O)C(=[N+]=[N-])C(C)=O`: the TGI in the experiment on 786-0 renal, in the experiment on A498 renal, with A549 NSCLC, in the experiment with HCT-15 colon, with HOP-92 NSCLC and in the experiment with HS 578T breast was over 1 µM each time. Moreover, the TGI in the experiment on IGROV1 ovarian, in the experiment on MALME-3M melanoma, in the experiment with MCF7 breast, in the experiment with MDA-MB-231 breast, in the experiment with OVCAR-5 ovarian and with OVCAR-8 ovarian was over 1 µM in each case. Moreover, the TGI in the experiment on RXF 393 renal, in the experiment on SF-268 CNS, in the experiment on SK-MEL-28 melanoma, in the experiment with SN12C renal, with SNB-19 CNS and with SNB-75 CNS was over 1 µM throughout. Besides, the TGI with UACC-257 melanoma is over 1 µM.
On to `CCCC(=O)OCC1OC(n2cc(F)c(=O)[nH]c2=O)C(F)C1OC(=O)CCC` (stereo unspecified), for which the TGI in the experiment on 786-0 renal, with A498 renal, with A549 NSCLC, in the experiment with COLO 205 colon, with HCT-15 colon and in the experiment on HOP-92 NSCLC was over 100 µM throughout. The TGI with HS 578T breast, with IGROV1 ovarian, in the experiment on MALME-3M melanoma, in the experiment on MCF7 breast, in the experiment on MDA-MB-231 breast and in the experiment on OVCAR-5 ovarian was over 100 µM in each case. Also, the TGI with OVCAR-8 ovarian, in the experiment with RXF 393 renal, in the experiment on SF-268 CNS, in the experiment with SK-MEL-28 melanoma, in the experiment on SN12C renal and in the experiment on SNB-75 CNS was over 100 µM in each case. In the experiment with UACC-257 melanoma, this compound displayed a TGI of over 100 µM.
As for `CCOC(=O)/C(C[C@H]1OC(C)(C)O[C@@H]1[C@H]1COC(C)(C)O1)=N/O`, the TGI with 786-0 renal, in the experiment with A498 renal, in the experiment with A549 NSCLC, in the experiment with COLO 205 colon, with HCT-15 colon and in the experiment on HOP-92 NSCLC was over 100 µM each time. Moreover, the TGI with HS 578T breast, in the experiment with IGROV1 ovarian, in the experiment on MALME-3M melanoma, in the experiment on MCF7 breast, in the experiment on MDA-MB-231 breast and with OVCAR-5 ovarian was over 100 µM throughout. The TGI in the experiment on OVCAR-8 ovarian, in the experiment with RXF 393 renal, in the experiment with SF-268 CNS, in the experiment with SK-MEL-28 melanoma, with SN12C renal and in the experiment on SNB-19 CNS was over 100 µM in each case. In the experiment on UACC-257 melanoma, this compound yielded a TGI of over 100 µM.
For the compound `C[S+](C)CC(=O)c1ccc2c(c1)Sc1ccccc1O2`, the TGI in the experiment on 786-0 renal worked out at 9.49 µM; in the experiment on A498 renal it was 26.9 µM; in the experiment on A549 NSCLC it was 18.1 µM; with HCT-15 colon, 13.2 µM; in the experiment on HOP-92 NSCLC, 21.5 µM; in the experiment with HS 578T breast it was 22.1 µM. Besides, the TGI was found to be 8.1 µM in the experiment on IGROV1 ovarian; 12 µM in the experiment on MALME-3M melanoma; 7.28 µM with MCF7 breast; 18.7 µM in the experiment on MDA-MB-231 breast; 18.8 µM in the experiment with OVCAR-5 ovarian; 13.6 µM in the experiment on OVCAR-8 ovarian. The TGI was found to be 9.23 µM in the experiment with RXF 393 renal; 14.6 µM in the experiment on SF-268 CNS; 25.1 µM in the experiment on SK-MEL-28 melanoma; 36.3 µM in the experiment with SN12C renal; 17.1 µM in the experiment with SNB-19 CNS; 14.2 µM in the experiment with SNB-75 CNS. The TGI in the experiment with UACC-257 melanoma was determined as 18.2 µM.
Consider `COc1cccc(NC(=O)CC(=O)N2N=C(C)C(N=Nc3ccc(S(=O)(=O)CCOS(=O)(=O)O)cc3)C2=O)c1` (stereo unspecified), for which the TGI in the experiment on 786-0 renal turned out to be 9.07 µM; with A498 renal, 22.7 µM; with A549 NSCLC it was 41.1 µM; in the experiment with COLO 205 colon it was 31.5 µM; in the experiment on HCT-15 colon, 12.1 µM; with HOP-92 NSCLC it was 13.2 µM. The TGI was 88 µM in the experiment with HS 578T breast; 17.3 µM in the experiment on IGROV1 ovarian; 23.2 µM in the experiment on MALME-3M melanoma; 5.71 µM with MCF7 breast; 25.6 µM in the experiment on MDA-MB-231 breast; 44.9 µM in the experiment on OVCAR-5 ovarian. Besides, the TGI in the experiment on OVCAR-8 ovarian was 15.5 µM; in the experiment on RXF 393 renal, 15.9 µM; in the experiment with SK-MEL-28 melanoma it was 16.9 µM; with SN12C renal it was 20.1 µM; in the experiment with SNB-19 CNS, 33.9 µM; in the experiment on SNB-75 CNS it was 15.5 µM. In the experiment with UACC-257 melanoma, this compound had a TGI of 23 µM.
